In brackets after ≈: the same amount, converted by molar mass. Activity calls are given as the source filed them. The calls are words filed in the database; no cut-off is given here.
What was measured:
F2002 cell line [1] = assay: Compound was tested in vitro for inhibitory activity against HCMV (Human cytomegalovirus) in Flow 2002 cells; format: functional, cell-based
F2002 cell line [2] = assay: Compound was tested in vitro for cytotoxic activity against HCMV (Human cytomegalovirus) in Flow 2002 cells; format: functional
WI-38 [3] = assay: Compound was tested in vitro for inhibitory activity against HCMV (Human cytomegalovirus) in WI38 cells; format: functional, cell-based
WI-38 [4] = assay: Compound was tested in vitro for cytotoxic activity against HCMV (Human cytomegalovirus) in WI38 cells; format: functional
Human betaherpesvirus 5 [5] = assay: Compound (up to 100 ug/mL) was tested in vitro for inhibitory activity against HCMV (Human cytomegalovirus); Inactive; format: functional, organism-based
[6] = Compound was tested for selectivity index of […]; format: functional
Human betaherpesvirus 5 [7] = assay: Compound was tested in vitro for inhibitory activity against HCMV (Human cytomegalovirus); format: functional, organism-based
Human betaherpesvirus 5 [8] = assay: Compound was tested in vitro for cytotoxic activity against HCMV (Human cytomegalovirus); format: functional

Structure (SMILES) | IC50 (F2002 cell line [1]) | CC50 (F2002 cell line [2]) | also measured
O=c1ccn([C@@H]2COCC2O)c(=O)[nH]1 (stereo partly drawn) | > 100 µg/mL | > 100 µg/mL | –
Nc1ccn(C2COCC2O)c(=O)n1 (stereo not drawn) | > 100 µg/mL | 100 µg/mL (≈ 507 µM) | –
N.Nc1ccn([C@@H]2COCC2OCP(=O)(O)O)c(=O)n1 (stereo partly drawn) | – | – | IC50 (WI-38 [3]): > 50 µg/mL; CC50 (WI-38 [4]): > 100 µg/mL
O=c1ccn(C2COCC2OCP(=O)(O)O)c(=O)[nH]1 (stereo not drawn) | > 100 µg/mL | > 100 µg/mL | –
N.Nc1ccn(C2COCC2OCP(=O)(O)O)c(=O)n1 (stereo not drawn) | – | – | IC50 (WI-38 [3]): > 100 µg/mL; CC50 (WI-38 [4]): > 100 µg/mL
Nc1ncnc2c1ncn2[C@@H]1COCC1OCP(=O)(O)O (stereo partly drawn) | – | – | Activity (Human betaherpesvirus 5 [5]): inactive
Nc1ncnc2c1ncn2[C@@H]1COCC1O (stereo partly drawn) | > 100 µg/mL | > 100 µg/mL | –
Nc1ccn([C@@H]2COCC2O)c(=O)n1 (stereo partly drawn) | 3 µg/mL (≈ 15.2 µM) | 100 µg/mL (≈ 507 µM) | Selectivity index [6]: 33
Nc1ncnc2c1ncn2C1COCC1O (stereo not drawn) | – | – | IC50 (WI-38 [3]): > 50 µg/mL; CC50 (WI-38 [4]): 100 µg/mL (≈ 452 µM)
Nc1ncnc2c1ncn2C1COCC1OCP(=O)(O)O (stereo not drawn) | – | – | Activity (Human betaherpesvirus 5 [5]): inactive
Nc1nc2c(ncn2COC(CO)CO)c(=O)[nH]1 [GANCICLOVIR] | – | – | IC50 (Human betaherpesvirus 5 [7]): 0.1 µg/mL (≈ 0.392 µM); CC50 (Human betaherpesvirus 5 [8]): > 100 µg/mL
O=c1ccn([C@@H]2COCC2OCP(=O)(O)O)c(=O)[nH]1 (stereo partly drawn) | > 100 µg/mL | 100 µg/mL (≈ 342 µM) | –
